# From PubChem BioAssay (NCI)
#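 1) Cells in 96-well plates. 2) Compound, 48 h, 5 concentrations. 3) Linear interpolation between surrounding doses. 4) Unreached endpoint = highest concentration. Abbreviation: GI50, concentration required for 50% inhibition of growth. At the TGI there is no net growth.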
# Columns and labels:
# Assay in all cases: DTP human tumour cell line panel, 48 h
# [1] = test system: OVCAR-3 ovarian
# [2] = test system: NCI-H226 lung
# [3] = test system: SK-MEL-28 melanoma
# [4] = test system: HCT-116 colon
# [5] = test system: NCI-H522 lung
# [6] = test system: SF-268 CNS
# [7] = test system: UO-31 renal
# [8] = test system: SK-OV-3 ovarian
# [9] = test system: NCI-H23 lung
# [10] = test system: NCI/ADR-RES ovarian
SMILES,TGI [1] [µM],TGI [2] [µM],TGI [3] [µM],TGI [4] [µM],TGI [5] [µM],TGI [6] [µM],TGI [7] [µM],TGI [8] [µM],TGI [9] [µM],GI50 [10] [µM],TGI [10] [µM],GI50 [1] [µM],GI50 [2] [µM],GI50 [3] [µM],GI50 [4] [µM],GI50 [5] [µM],GI50 [6] [µM],GI50 [7] [µM],GI50 [8] [µM],GI50 [9] [µM]
CCOc1cc2c(cc1OC)c[n+](C)c1c3cc(OC)c(OC)cc3ccc21,> 100,99,> 100,> 100,> 100,> 100,> 100,> 100,> 100,,,,,,,,,,,
COc1ccccc1C1C(C#N)=C(N)SC(N)=C1C#N,> 100,75.8,> 100,> 100,76.2,> 100,> 100,> 100,> 100,43.9,> 100,62.4,25.6,43.3,43.8,29.9,48.9,82.5,> 100,97
CCOC(=O)c1ccc(N2C(=O)/C(=C/c3ccc(N(CCC#N)CCC#N)cc3)N=C2c2cc([N+](=O)[O-])ccc2Cl)cc1,> 100,> 100,> 100,> 100,> 100,> 100,> 100,> 100,> 100,,,,,,,,,,,
CC1OC1C(=O)P(=O)(O)O (configuration not stated),> 100,> 100,> 100,> 100,> 100,> 100,> 100,> 100,> 100,,> 100,,,,,,,,,
OC1CCN2Cc3ccccc3N=C12 (configuration not stated),> 100,> 100,> 100,> 100,,> 100,> 100,> 100,> 100,,> 100,,,,,,,,,
NCC(=O)N[C@H]1c2ccsc2/C(=N/O)[C@H]1O,> 100,> 100,> 100,> 100,,,> 100,> 100,> 100,,> 100,,,,,,,,,
Cc1ccccc1NC(=O)C(=O)C(C1OC(=O)c2ccccc21)[N+](=O)[O-] (configuration not stated),,> 100,> 100,> 100,> 100,> 100,> 100,> 100,> 100,,,,,,,,,,,
COC1CCC(O)C(CO)O1 (configuration not stated),> 100,,> 100,> 100,26.9,,> 100,> 100,> 100,,,,,,,,,,,
C[N+](C)(N)Cc1nc(-c2ccc(Cl)cc2)no1,> 100,> 100,> 100,> 100,> 100,,,> 100,> 100,,> 100,,,,,,,,,
O=C(O)CSC1=NCCN1,> 100,,> 100,> 100,> 100,> 100,> 100,> 100,> 100,,> 100,,,,,,,,,
